A short description of series [1]: Stratum corneum/vehicle partition coefficient studies. The series is classed as in vitro ADME, human. The following applies: mineral oil vehicle, 32° C., 48 h; no units. The protocol: Human epidermis with stratum corneum (SC) side facing up was incubated on filter paper soaked with 0.1% trypsin in 0.5% sodium bicarbonate solution at 37° C. for 3 h. The SC membrane was separated and dried in a vacuum dessicator. After 24 h, the SC was dipped in acetone for 20 s to remove sebaceous lipids and dried again.
Approximately 5 mg of SC was equilibrated with sub-saturated drug solutions in 0.5 g of mineral oil solution at 32° C. for 48 h. Two different levels of sub-saturated drug solutions, 10 and 20 nmol in 0.5 g of mineral oil, were used in SC/vehicle partition coefficient studies. However, irrespective of the drug concentrations used, the ratio derived should always be the same since the partition coefficient measurement is an equilibrium phenomenon. An aliquot of the mineral oil solution (10 μl) was withdrawn at the end of the study and was diluted to 1000 μl with acetonitrile. The samples were then analyzed by HPLC. The amount of the drug partitioned into the SC was measured by subtracting the amount present in the mineral oil after equilibration from the initial drug concentration in the mineral oil. The partition coefficient ratio was expressed as the concentration of the drug in 1 g of SC divided by the concentration of the drug in 1 g of mineral oil.

The conditions of series [2]: mice, versus naloxone and naltrexone; cited from earlier work.
For series [3] the following is noted: human skin; for Mean permeability coefficient (KP × 10^3): from steady-state flux and donor solubility; for Flux from mineral oil: saturated solution in light mineral oil, 32° C., 48 h, codrug in 6-β-naltrexol equivalents. Here is the method:
Human skin harvested during abdominal reduction surgery was used for the diffusion studies. Skin sections were obtained by using a Padgett dermatome set to 250 μm; these sections were stored at −20° C. Stored skin samples were thawed to room temperature at the time of the experiment. A PermeGear flow-through (In-Line, Riegelsville, Pa., USA) diffusion cell system was used for the skin permeation studies. Skin surface temperature was maintained at 32° C. with a circulating water bath. Data was collected by using human skin from a single donor with three cells of 6-β-naltrexol and four cells CB-NTXOL-BUPOH. Because of normal human skin inter-subject permeation variability, the codrug was compared against 6-β-naltrexol permeation within each individual skin sample. These studies were repeated three times with skin from different human subject donors. The receiver solution was HEPES-buffered Hanks' balanced salt solution pH 7.4 set at a flow rate of 1.1 ml/h. […] A saturated solution of 6-β-naltrexol or CB-NTXOL-BUPOH in light mineral oil was applied to the skin in order to maintain a maximum and constant thermodynamic activity of the drug. Each cell was charged with 0.25 ml of the respective drug solution. […] All samples were immediately processed by solid phase extraction, evaporated under nitrogen, reconstituted, and analyzed for drug content by HPLC. The human tissue use was approved by the University of Kentucky Institutional Review Board.
Cumulative quantity of drug collected in the receiver compartment was plotted as a function of time. The flux value for a given experiment was obtained from the slope of the steady-state portion of the cumulative amount of drug permeated vs. time plot. Apparent permeability coefficient values were computed from Fick's First Law of diffusion:
Sink conditions were maintained in the receiver throughout the experiment, so ΔC was approximated by the drug concentration (solubility in this case) in the donor compartment.
The skin tissue was rinsed with filtered water and blotted with a paper towel. The tissue was tape-stripped twice to remove surface formulation. The area of skin with drug contact was cut out, chopped into tiny pieces, and placed in a pre-weighed vial. The vial was weighed to calculate the mass of the skin. Ten milliliters of acetonitrile was added to each vial, the vials vortexed, sonicated for 10 min, and placed in a shaker overnight. The following day, a 1 ml sample was obtained from the vials and placed in autosampler vials for analysis. […] Flux values and skin concentrations for each of the drugs were reported as mean±S.D and were statistically compared using a paired Student's t-test. Flux enhancement as well as drug disposition in the skin were considered significant at p<0.05.

The conditions of series [4]: previous experiments; cited from earlier work.
The conditions of series [5]: Table 4; values obtained from Kiptoo et al.; cited from earlier work.
The conditions of series [6]: humans, systemic circulation after oral dose of NTX; cited from earlier work.
The test system of series [7] is electrically-stimulated guinea pig ileum. The settings on record: in vitro; cited from earlier work.
The format of series [8] is physicochemical. The following applies: isotonic phosphate buffer pH 7.4, 32° C.
Description: Equal amounts of the each of the codrug were distributed into labeled test-tubes (20 nmol in each tube). Care was taken to ensure that the entire codrug was dissolved and the solution remained clear. Hydrolysis of the carbonate codrug (˜20 nmol) was conducted in isotonic phosphate buffer pH 7.4 at 32° C. in a water-bath with continuous stirring. […] Samples were collected at predetermined time intervals and stored in the freezer at −20° C. until analyzed. All experiments were conducted in triplicate. An aliquot part (250 μL) of hydrolysis solutions was mixed with 750 μL of acetonitrile, vortexed for 30s, and analyzed by HPLC for the presence of codrug and the two corresponding parent drugs, as well as for the intermediate hydrolysis product, 23. […] A Brownlee C18 reversed-phase Spheri-5 μm column (220×4.6 mm) connected to a C18 reversed-phase guard column (15×3.2 mm) was utilized and detection of solutes was carried out at 215 nm. The mobile phase consisted of a mixture of acetonitrile: 0.1% trifluoroacetic acid adjusted to pH 3.0 with triethylamine (50:50, v/v). The mobile phase flow rate was 1.5 mL/min and 100 μL of hydrolysis sample was injected onto the column.
Where [9] appears, read: cumulative 6-β-naltrexol equivalents permeated.

With `Oc1ccc2c3c1O[C@H]1[C@H](O)CC[C@@]4(O)[C@@H](C2)N(CC2CC2)CC[C@]314` [Compound 2, 6-β-naltrexol], the “SC/Vehicle partition coefficient, PC” value in series [1] is 73.91. Also, the “in vivo potency of an acute dose” value in series [2] is on record as “less than the other two antagonists”. In series [3], the “Mean permeability coefficient (KP × 10^3)” value is recorded as 12.00 cm/h and the “Flux from mineral oil” value was 0.36 nmol cm^−2 h^−1. Besides, the “flux and other in vitro permeation parameters, guinea pig skin relative to human skin” value in series [4] is listed as 5.6 fold. Further, the “Light mineral oil solubility” value in series [5] was 30 ± 10 µM. Also, in series [6], the half-life entry is on record as “about 12 h”. Also, in series [7], the “potency relative to naloxone” value was 4.5 fold and the “potency relative to naltrexone” value is 2.8 fold.
As for `Cc1c(-c2cccc(Cl)c2)oc(=O)n1C(C)(C)COC(=O)Oc1ccc2c3c1OC1C(O)CCC4(O)C(C2)N(CC2CC2)CCC314` (centres unmarked) [Compound 26], the “first-order rate constant k2” value in series [8] (generation of BUPOH via intermediate from codrug 26) came out at 0.0139 ± 0.0006 h⁻¹. Further, the “first-order rate constant k1” value in series [8] (hydrolysis at carbonate linker generating NTX (25) or NTXOL (26)) stood at 0.0240 ± 0.0007 h⁻¹. Further, in series [1], the “SC/Vehicle partition coefficient, PC” value is on record as 200.61. For the same molecule, in series [3] (setting [9]), the “share of 6-β-naltrexol flux from intact CB-NTXOL-BUPOH” value is recorded as “approximately 35%” and the “share of 6-β-naltrexol flux originating from skin hydrolysis of codrug” value was 65%. For the same molecule, in series [3], the “Mean permeability coefficient (KP × 10^3)” value is given as 0.47 cm/h and the “Flux from mineral oil” value stood at 1.34 nmol cm^−2 h^−1. For the same molecule, in series [5], the “Light mineral oil solubility” value was 2880 ± 90 µM.

The values are drawn from US8653271B2 (priority 2006, dated 2014).
